Assay results taken from patent US20250222146A1, “Radiopharmaceuticals Targeting Somatostatin Receptor 2 and Uses Thereof” (RayzeBio, Inc., priority 2023, published 2025).
Numbered stars: 1 amine (or outer) side, 2 acyl side, 3 side chain; on linkers, the order of the positions; unused ones are H or OH. Square brackets hold non-standard residues; d marks the D form. Peptide text beside a SMILES is read from it. * marks the point of attachment. DOTA(Lu)NH(CH2)6NHCOCH2 = O=C(CN1CCN2CCN3CCN(CC1)CC(=O)[O][Lu]([O]C(=O)C2)[O]C(=O)C3)NCCCCCCNC(=O)C*; dTrp(βS-Me) = C[C@@H](c1c[nH]c2ccccc12)[C@@H](N)C(=O)O; X20 = CN(C[C@H](N[*:1])C(=O)[*:2])c1ccccc1; dNMeW = CN[C@H](Cc1c[nH]c2ccccc12)C(=O)O; Dip = N[C@H](C(=O)O)C(c1ccccc1)c1ccccc1; Gly(cPent) = N[C@H](C(=O)O)C1CCCC1; Cha = N[C@@H](CC1CCCCC1)C(=O)O; NMehCys = CN[C@@H](CCS)C(=O)O; Cba = N[C@@H](CC1CCC1)C(=O)O; NMeK = CN[C@@H](CCCCN)C(=O)O

molecular target: SSTR2 (Homo sapiens, UniProt P30874); experiment: SSTR binding affinity by radioligand binding competition assay ([125I]-Tyr11-Somatostatin, membrane extracts); details: radioligand competition, [125I]-Tyr11-Somatostatin 0.1 nM, membrane extracts; Ki from IC50 by Cheng Prusoff; read-out: SSTR2 Ki
Sequence (P30874 whole entry): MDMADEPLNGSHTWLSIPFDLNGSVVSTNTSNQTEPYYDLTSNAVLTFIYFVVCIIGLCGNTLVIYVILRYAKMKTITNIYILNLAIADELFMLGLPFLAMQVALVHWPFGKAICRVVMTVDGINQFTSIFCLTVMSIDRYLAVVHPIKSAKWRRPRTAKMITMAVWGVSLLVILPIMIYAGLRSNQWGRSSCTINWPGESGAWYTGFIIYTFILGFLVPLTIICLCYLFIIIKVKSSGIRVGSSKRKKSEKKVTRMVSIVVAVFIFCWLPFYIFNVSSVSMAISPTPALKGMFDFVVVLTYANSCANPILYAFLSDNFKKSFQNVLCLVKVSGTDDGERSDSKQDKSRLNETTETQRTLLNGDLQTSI

| Compound | Ki |
| --- | --- |
| CC(C)[C@@H]1NC(=O)[C@H](CCCCN)NC(=O)[C@@H]([C@@H](C)c2c[nH]c3ccccc23)NC(=O)[C@H](Cc2ccc(O)cc2)NC(=O)[C@H](CCSCC(=O)NCCCCCCNC(=O)CN2CCN3CCN4CCN(CC2)CC(=O)[O][Lu]([O]C(=O)C3)[O]C(=O)C4)N(C)C(=O)[C@H](Cc2ccccc2)NC1=O [RB-0004609] (cyclo(F[NMehCys](DOTA(Lu)NH(CH2)6NHCOCH2)Y[dTrp(βS-Me)]KV)) | < 1 nM |
| CC(C)[C@@H]1NC(=O)[C@H](CCCCN)N(C)C(=O)[C@@H](Cc2c[nH]c3ccccc23)N(C)C(=O)[C@H](Cc2ccc(O)cc2)NC(=O)[C@H](CCSCC(=O)NCCCCCCNC(=O)CN2CCN3CCN4CCN(CC2)CC(=O)[O][Lu]([O]C(=O)C3)[O]C(=O)C4)N(C)C(=O)[C@H](Cc2ccccc2)NC1=O [RB-0004611] (cyclo(F[NMehCys](DOTA(Lu)NH(CH2)6NHCOCH2)Y[dNMeW][NMeK]V)) | < 1 nM |
| CC(C)[C@@H]1NC(=O)[C@H](CCCCN)NC(=O)[C@@H](Cc2c[nH]c3ccccc23)NC(=O)[C@H](C(c2ccccc2)c2ccccc2)NC(=O)[C@H](CCSCC(=O)NCCCCCCNC(=O)CN2CCN3CCN4CCN(CC2)CC(=O)[O][Lu]([O]C(=O)C3)[O]C(=O)C4)N(C)C(=O)[C@H](Cc2ccccc2)NC1=O [RB-0004613] (cyclo([Dip][dW]KVF[NMehCys](DOTA(Lu)NH(CH2)6NHCOCH2))) | < 1 nM |
| CC(C)[C@@H]1NC(=O)[C@H](CCCCN)NC(=O)[C@@H](Cc2c[nH]c3ccccc23)NC(=O)[C@H](Cc2ccc(O)cc2)NC(=O)[C@H](CCSCC(=O)NCCCCCCNC(=O)CN2CCN3CCN4CCN(CC2)CC(=O)[O][Lu]([O]C(=O)C3)[O]C(=O)C4)N(C)C(=O)[C@H](CN(C)c2ccccc2)NC1=O [RB-0004615] (cyclo(KV[X20][NMehCys](DOTA(Lu)NH(CH2)6NHCOCH2)Y[dW])) | < 1 nM |
| CC(C)[C@@H]1NC(=O)[C@H](CCCCN)NC(=O)[C@@H](Cc2c[nH]c3ccccc23)NC(=O)[C@H](Cc2ccc(O)cc2)NC(=O)[C@H](CCSCC(=O)NCCCCCCNC(=O)CN2CCN3CCN4CCN(CC2)CC(=O)[O][Lu]([O]C(=O)C3)[O]C(=O)C4)N(C)C(=O)[C@H](CC2CCCCC2)NC1=O [RB-0004617] (cyclo([Cha][NMehCys](DOTA(Lu)NH(CH2)6NHCOCH2)Y[dW]KV)) | 1 to 3.33 nM |
| CO[C@H](C)[C@@H]1NC(=O)[C@H](CCCCN)NC(=O)[C@@H](Cc2c[nH]c3ccccc23)NC(=O)[C@H](Cc2ccc(O)cc2)NC(=O)[C@H](CCSCC(=O)NCCCCCCNC(=O)CN2CCN3CCN4CCN(CC2)CC(=O)[O][Lu]([O]C(=O)C3)[O]C(=O)C4)N(C)C(=O)[C@H](Cc2ccccc2)NC1=O [RB-0004619] | < 1 nM |
| CN1C(=O)[C@H](Cc2ccccc2)NC(=O)[C@H](CC2CCC2)NC(=O)[C@H](CCCCN)NC(=O)[C@@H](Cc2c[nH]c3ccccc23)NC(=O)[C@H](Cc2ccc(O)cc2)NC(=O)[C@@H]1CCSCC(=O)NCCCCCCNC(=O)CN1CCN2CCN3CCN(CC1)CC(=O)[O][Lu]([O]C(=O)C2)[O]C(=O)C3 [RB-0004621] (cyclo([Cba]F[NMehCys](DOTA(Lu)NH(CH2)6NHCOCH2)Y[dW]K)) | < 1 nM |
| CN1C(=O)[C@H](Cc2ccccc2)NC(=O)[C@H](C2CCCC2)NC(=O)[C@H](CCCCN)NC(=O)[C@@H](Cc2c[nH]c3ccccc23)NC(=O)[C@H](Cc2ccc(O)cc2)NC(=O)[C@@H]1CCSCC(=O)NCCCCCCNC(=O)CN1CCN2CCN3CCN(CC1)CC(=O)[O][Lu]([O]C(=O)C2)[O]C(=O)C3 [RB-0004623] (cyclo(F[NMehCys](DOTA(Lu)NH(CH2)6NHCOCH2)Y[dW]K[Gly(cPent)])) | < 1 nM |
| C[C@@H](O)[C@@H]1NC(=O)[C@H](CCCCN)NC(=O)[C@@H](Cc2c[nH]c3ccccc23)NC(=O)[C@H](Cc2ccc(O)cc2)NC(=O)[C@H](CCSCC(=O)NCCCCCCNC(=O)CN2CCN3CCN4CCN(CC2)CC(=O)[O][Lu]([O]C(=O)C3)[O]C(=O)C4)N(C)C(=O)CNC1=O [RB-0004819] (cyclo(G[NMehCys](DOTA(Lu)NH(CH2)6NHCOCH2)Y[dW]KT)) | < 1 nM |
